According to patent publication US8324172B2, “G protein coupled receptor agonists and antagonists and methods of activating and inhibiting G protein coupled receptors using the same” (Tufts Medical Center, Inc., priority 2000, dated 2012):
Changes are numbered by the printed parent chain. Where “and” joins values, the source holds several entries; their conditions need not be identical. Identical values can stand only once. Where a SMILES comes first, the peptide text is derived from it. Where no end group is shown, it is not given here. The star is where a group is joined. Palmitoyl = CCCCCCCCCCCCCCCC(=O)*

Columns and labels:
[1] = test system: MDA-MB-231 breast cancer cells; assay: Chemoinvasion of MDA-MB-231 breast cancer cells (Transwell); type: cell-based, human; conditions: NIH3T3 conditioned medium
Description: Experiments were performed in order to determine if application of pepducins based on the i3 loops of PAR1, PAR2, or PAR4 would inhibit migration and invasion of breast cancer cells. It was determined that the highly invasive MDA-MB-231 breast cancer cell line expressed very high levels of functional PAR1, PAR2 and PAR4. […] Pepducins were added with NIH3T3 Conditioned medium (CM) to the bottom well of a Transwell apparatus.

[2] = test system: human platelets
[3] = target: T1, PAR1 (Homo sapiens, UniProt P25116); assay: Inhibition of SFLLRN-induced human platelet aggregation; type: cell-based; conditions: 3 μM pepducin, 1 min preincubation
T1 construct: expressed in transfected cells
T1 sequence (P25116 22-425): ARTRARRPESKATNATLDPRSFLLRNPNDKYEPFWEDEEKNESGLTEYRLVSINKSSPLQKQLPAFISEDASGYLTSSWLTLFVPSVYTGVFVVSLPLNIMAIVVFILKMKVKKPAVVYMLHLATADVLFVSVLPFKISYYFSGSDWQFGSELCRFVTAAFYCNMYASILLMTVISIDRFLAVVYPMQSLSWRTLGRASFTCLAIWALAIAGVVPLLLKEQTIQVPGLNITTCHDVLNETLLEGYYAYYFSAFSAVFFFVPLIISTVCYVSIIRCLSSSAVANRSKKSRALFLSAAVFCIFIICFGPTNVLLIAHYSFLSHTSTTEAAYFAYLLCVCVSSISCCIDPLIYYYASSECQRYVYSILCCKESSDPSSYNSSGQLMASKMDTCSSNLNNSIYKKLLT

[4] = test system: TXA2, ADP, collagen, or GPIb/IX/V receptors; assay: Inhibition of human platelet aggregation induced by U46619, ADP, collagen or ristocetin; type: cell-based; conditions: 5 μM pepducin, ristocetin
From the text: 84, 1440 (1989)) and von Willebrand factor (GPIb/IX/V) (Savage et al., Cell 94, 657 (1998)) using platelets as the biologically-relevant system.

[5] = target: T1, PAR1; assay: Inhibition of PAR1-dependent platelet Ca2+ signal; type: cell-based; conditions: SFLLRN (or thrombin) after peptide pre-treatment
Description: (§1) Platelet Ca2+ measurements were performed as in Example 1.
(§2) The integrated Ca^2+ response for the individual treatments are relative to the full Ca^2+ responses for each agonist (100%) recorded in the absence of P4pal-10 (top trace).

[6] = target: T2, PAR4 (Homo sapiens, UniProt Q96RI0); assay: Inhibition of PAR4-dependent platelet Ca2+ signal (AYPGKF); type: cell-based; conditions: 3 micromolar pepducin; 200 Micromolar AYPGKF
T2 sequence (Q96RI0 18-385): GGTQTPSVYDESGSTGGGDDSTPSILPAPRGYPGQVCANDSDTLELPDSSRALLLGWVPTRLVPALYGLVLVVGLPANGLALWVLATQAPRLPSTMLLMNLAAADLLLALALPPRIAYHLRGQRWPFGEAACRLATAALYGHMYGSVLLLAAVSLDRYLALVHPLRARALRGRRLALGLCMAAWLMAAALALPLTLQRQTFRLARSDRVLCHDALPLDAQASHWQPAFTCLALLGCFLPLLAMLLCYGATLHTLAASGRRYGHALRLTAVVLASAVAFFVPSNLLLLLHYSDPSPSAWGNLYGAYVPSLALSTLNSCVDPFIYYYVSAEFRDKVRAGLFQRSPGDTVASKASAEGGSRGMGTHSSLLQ
Description: as §1, §2

[7] = target: T2, PAR4; assay: Inhibition of AYPGKF-induced human platelet aggregation; type: cell-based; conditions: AYPGKF
[8] = test system: thrombin receptors on human platelets; assay: Inhibition of thrombin-induced human platelet aggregation; conditions: 3 μM pepducin
[9] = Tail bleeding time and rebleeding in mice; conditions: 3 μmoles/L i.v.
[10] = target: T1, PAR1; assay: InsP formation in COS7 cells transiently transfected with wild-type PAR1; type: cell-based
[11] = target: T2, PAR4; assay: InsP formation in COS7 cells expressing PAR4; type: cell-based; parameters: expressed in transfected cells; host or cells: COS7, transient
[12] = target: T3, P2Y12 ADP receptor (Homo sapiens, UniProt Q9H244); assay: Irreversible aggregation of SFLLRN-activated human platelets (ADP autocrine response); type: cell-based; conditions: 3 μM SFLLRN
T3 construct: endogenous in cells; host or cells: gel-purified human platelets
From the text: Recently, the P2Y12 adenosine diphosphate (ADP) receptor was cloned by three independent groups (Hollopeter et al., Nature 409:202 (2001); Zhang et al., J. Biol. Chem. 276:8605 (2001); and Takasaki et al., Mol. Pharmacol. 60:432 (2001)) and shown to be the long-sought after target of the thienopyridine drugs clopidogrel and ticlopidine (Gachet et al., Biochem Pharmacol 40:2683 (1990); Mills et al., Arterioscler Thromb 12:430 (1992)). […] P2Y12 plays such a critical role in thrombus formation because it can modulate the strength of platelet-platelet adhesive interactions via multiple receptors such as PAR1. Inputs from P2Y12 stabilize the critical transition point of platelet-platelet aggregates during the progression from early reversible GPIIb-IIIa-fibrinogen binding to the late phase of irreversible binding to fibrinogen.
Aggregometry was performed by light scattering.

[13] = test system: delta377 PAR1; assay: InsP formation in COS7 cells expressing delta377 (C-tail deleted) PAR1 mutant; type: cell-based, human; conditions: relative to wild type PAR1
[14] = target: T1, PAR1; assay: InsP formation (PLC-β) in Rat1 fibroblasts expressing human PAR1; type: cell-based; conditions: 0.1 nM thrombin
[15] = target: T4, S309P PAR1 (Homo sapiens, UniProt P25116, S309P); assay: InsP formation in COS7 cells expressing S309P PAR1 mutant; type: cell-based; conditions: relative to wild type PAR1
T4 construct: expressed in transfected cells; host or cells: COS7, transient
T4 sequence (P25116 22-425 S309P): T1 sequence (P25116 22-425) with S288P

[16] = test system: murine platelets (PAR4); assay: Aggregation of washed murine platelets; conditions: read-out: EC50 of aggregation of murine platelets

T3 sequence (Q9H244 whole entry): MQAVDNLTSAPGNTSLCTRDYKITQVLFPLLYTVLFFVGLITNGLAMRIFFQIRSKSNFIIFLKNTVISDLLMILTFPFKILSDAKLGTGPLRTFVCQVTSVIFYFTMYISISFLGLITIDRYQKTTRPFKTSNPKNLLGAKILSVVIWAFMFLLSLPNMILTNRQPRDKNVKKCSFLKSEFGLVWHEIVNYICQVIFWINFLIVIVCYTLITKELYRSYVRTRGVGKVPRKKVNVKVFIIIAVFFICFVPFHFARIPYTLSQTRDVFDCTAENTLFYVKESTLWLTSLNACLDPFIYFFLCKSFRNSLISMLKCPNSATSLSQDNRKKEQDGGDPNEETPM

## CCCCCCCCCCCCCCCC(=O)N[C@@H](CCCCN)C(=O)N[C@@H](CCCCN)C(=O)N[C@@H](CO)C(=O)N[C@@H](CCCNC(=N)N)C(=O)N[C@@H](C)C(=O)N[C@@H](CC(C)C)C(=O)N[C@@H](Cc1ccccc1)C(N)=O [Pepducin P1pal-7, Pal-KKSRALF] (Palmitoyl-KKSRALF-NH2)
[1]
  inhibition of chemoinvasion: 30%
[2]
  agonist activity in platelet aggregation: loss of stimulatory activity

## CCCCCCCCCCCCCCCC(=O)N[C@@H](CCCNC(=N)N)C(=O)N[C@@H](CS)C(=O)N[C@@H](CC(C)C)C(=O)N[C@@H](CO)C(=O)N[C@@H](CO)C(=O)N[C@@H](CO)C(=O)N[C@@H](C)C(=O)N[C@H](C(=O)N[C@@H](C)C(=O)N[C@@H](CC(N)=O)C(=O)N[C@@H](CCCNC(=N)N)C(=O)N[C@@H](CO)C(N)=O)C(C)C [Pepducin P1pal-12] (Palmitoyl-RCLSSSAVANRS-NH2)
[3]
  aggregation blocked: 75-95%
[4]
  block of aggregation by ligands of other platelet receptors: did not block aggregation
[5]
  inhibition of PAR1-dependent Ca2+ response: effectively inhibits PAR1 activation
[5]; listed as P1pal12
  inhibition of PAR1-dependent Ca2+ response: completely block PAR1 signaling
[6]
  inhibition of PAR4-dependent Ca2+ response: does not block PAR4 activation
[7]
  inhibition of PAR4-dependent platelet aggregation: does not inhibit PAR4-dependent platelet aggregation
[8]; 3 nM thrombin, 1 min
  inhibition of aggregation: completely blocked aggregation
[8]; 20 nM thrombin
  inhibition of aggregation: not appreciably blocked
[9]
  effect on tail-bleeding time: did not prolong tail-bleeding time
  mean total bleeding time: 95 s
  re-bleeding / unstable haemostasis: did not prolong tail-bleeding time or result in unstable haemostasis
[9]; listed as P1pal12
  re-bleeding / unstable haemostasis: not observed
[2]
  agonist activity in platelet aggregation: loss of stimulatory activity

## CCCCCCCCCCCCCCCC(=O)N[C@@H](CCCNC(=N)N)C(=O)N[C@@H](CCSC)C(=O)N[C@@H](CC(C)C)C(=O)N[C@@H](CCCNC(=N)N)C(=O)N[C@@H](CO)C(=O)N[C@@H](CO)C(=O)N[C@@H](C)C(=O)N[C@@H](CCSC)C(=O)N[C@@H](CC(=O)O)C(=O)N[C@@H](CCC(=O)O)C(=O)N[C@@H](CC(N)=O)C(=O)N[C@@H](CO)C(=O)N[C@@H](CCC(=O)O)C(=O)N[C@@H](CCCCN)C(=O)N[C@@H](CCCCN)C(=O)N[C@@H](CCCNC(=N)N)C(=O)N[C@@H](CCCCN)C(=O)N[C@@H](CCCNC(=N)N)C(=O)N[C@@H](C)C(=O)N[C@H](C(=O)N[C@@H](Cc1ccccc1)C(N)=O)[C@@H](C)CC [Pepducin P2pal-21F]
[10]; COS7 cells, FIG. 2G
  activation of PAR1 (InsP): activated PAR1
[1]
  inhibition of chemoinvasion: 90%
[11]; COS7 cells
  activation of PAR4 (InsP): not PAR4

## Y12pal-24: pepducin based on the i3-loop of P2Y12; peptide KELYRS YVRTRGVGKVPRKKVNVF (SEQ ID NO:34) (KELYRSYVRTRGVGKVPRKKVNVF; also: palmitoyl lipid, position not given here) [Pepducin Y12pal-24]
[12]; 0, 1, 3, or 10 μM pepducin
  inhibition of irreversible platelet aggregation: effective inhibitor of irreversible platelet aggregation
[12]; 10 μM pepducin
  efficacy of inhibition compared with apyrase: equivalent in efficacy as addition of saturating amounts of apyrase
[2]
  agonist activity in platelet aggregation: no agonist activity

## thrombin [reference compound]
[10]; 0.1 nM thrombin
  InsP stimulation of WT PAR1 (100%): 9.6 fold
[13]
  shift of potency on delta377 mutant: 22 fold
[14]
  full PAR1 thrombin response (InsP stimulation) of individual experiments: 7.6 fold and 9.4 fold and 12.4 fold and 18 fold and 9.5 fold and 5.2 fold
[11]; 10 nM thrombin
  full extracellular agonist-stimulated InsP response: 3.1 fold
[15]
  loss of efficacy on S309P mutant: 1.6 fold
  loss of potency on S309P mutant: 17 fold
[16]
  EC50: 0.6 nM
